Results reported in PMC6335420, “The cell cycle regulator GpsB functions as cytosolic adaptor for multiple cell wall enzymes” (Nature Communications, 2019).
Entries after “also recorded” stand apart in the source; their conditions may differ. Residues, ends and D or L forms follow the SMILES beside them. *: point of attachment. Fluorescein(5-Mal) = O=C1OC2(c3ccc(O)cc3Oc3cc(O)ccc32)c2ccc(N3C(=O)CC(*)C3=O)cc21; X1 = CN(C)c1ccc2c(-c3ccc(N4C(=O)CC(*)C4=O)cc3C(=O)[O-])c3ccc(=[N+](C)C)cc-3oc2c1

Legend:
L. monocytogenes [1] = test: L. monocytogenes fosfomycin susceptibility (filter disc); type: cell-based, Listeria monocytogenes EGD-e; details: halo around filter disc, BHI agar, 37 °C; pbpA1 R8A,R12A and Q10P mutants; triplicate
Procedure: Fosfomycin susceptibility was recorded using filter discs (Ø 6 mm) soaked with 10 µL of a 10 mg^−1mL^−1 fosfomycin solution. L. monocytogenes colonies, grown on BHI agar plates, were resuspended in BHI broth and used to swab-inoculate BHI agar plates. Filter discs soaked with fosfomycin were placed on top of the agar surface and the plates were incubated at 37 °C overnight. Diameter of growth inhibition zones was measured and corrected for the filter disc diameter. All experiments were performed three times and average values and standard deviations were calculated. Significance was determined using the t-test and differences were considered to be significant when P < 0.01.

L. monocytogenes [2] = details: 37 °C, vs wild-type L. monocytogenes; cited from earlier work
BsGpsB1-68Tyr25Phe = biological target: T1, BsGpsB1-68Tyr25Phe (Bacillus subtilis, UniProt P0CI74, Y25F); test: Fluorescence polarisation binding to BsGpsB1-68Tyr25Phe; details: FP, BsGpsB Tyr25Phe relative to wild-type BsGpsB1-68
T1 construct: correspond to BsGpsB1-68^Asp31Ala and BsGpsB1-68^Tyr25Phe mutants, respectively; His6 (N, cleaved yes); made in house; host or cells: E. coli BL21(DE3)
Source text: (§1) 75 the BsGpsB5-64:BsPBP11-17 complex.

[3] = Circular dichroism of PBP peptides (helicity); type: physicochemical; details: CD, 222 nm, 4 °C, 20 mM sodium phosphate pH 7.3, 25 μM peptide
Procedure: CD spectra were recorded on a JASCO J-810 spectropolarimeter with a PTC-4235 Peltier temperature controller using 1 mm path length quartz cuvettes. For full wavelength scans a scan speed of 10 nm^−1min^−1 and a response time of 4 s were used, the final spectra were the average of at least four measurements. BsPBP1_1-32 CD spectra were recorded at 4 °C in a buffer of 20 mM sodium phosphate, pH 7.3 at a peptide concentration of 25 μM. Peptide helical contents were estimated from molar ellipticities at 222 nm using the equation helix = [θ]222 nm / (39,500(1–2.57/n))[78] where n is the number of residues in the peptide. LmPBPA1_1-15 CD spectra were analysed at 40 μM in 20 mM sodium phosphate buffer, pH 7.8, for samples containing 0, 40 and 60% trifluoroethanol (TFE). For samples containing 80% TFE, 5 mM sodium phosphate buffer, pH 7.8, was used. The CD spectra of BsGpsB1-68 proteins were measured at a concentration of 4.5 μM in a buffer of 20 mM sodium phosphate (pH 7.8) 150 mM NaCl. For thermal melt experiments, a response time of 8 s and scan rate of 1 °C^−1min^−1 were used. All thermal melts were reversible as CD spectra recorded before and after the melts in the wavelength range 200–240 nm could be superimposed.

BsGpsB1-68Asp35Ala = biological target: T2, BsGpsB1-68Asp35Ala (Bacillus subtilis, UniProt P0CI74, D35A); test: Fluorescence polarisation binding to BsGpsB1-68Asp35Ala; details: FP, BsGpsB1-68Asp35Ala relative to wild-type BsGpsB1-68
T2 construct: Glu17Ala, Asp31Ala and Asp35Ala mutations were introduced to the BsGpsB1-68 expression construct plasmid; His6 (N, cleaved yes); made in house; host or cells: E. coli BL21(DE3)
Source text: as §1

BsGpsB1-68Glu17Ala = biological target: T3, BsGpsB1-68Glu17Ala (Bacillus subtilis, UniProt P0CI74, E17A); test: Fluorescence polarisation binding to BsGpsB1-68Glu17Ala; details: FP, BsGpsB1-68Glu17Ala relative to wild-type BsGpsB1-68
T3 construct: Glu17Ala, Asp31Ala and Asp35Ala mutations were introduced to the BsGpsB1-68 expression construct plasmid; His6 (N, cleaved yes); made in house; host or cells: E. coli BL21(DE3)
Source text: as §1

BsGpsB1-68Asp31Ala = biological target: T4, BsGpsB1-68Asp31Ala (Bacillus subtilis, UniProt P0CI74, D31A); test: Fluorescence polarisation binding to BsGpsB1-68Asp31Ala; details: FP, BsGpsB Asp31Ala relative to wild-type BsGpsB1-68
T4 construct: Glu17Ala, Asp31Ala and Asp35Ala mutations were introduced to the BsGpsB1-68 expression construct plasmid; His6 (N, cleaved yes); made in house; host or cells: E. coli BL21(DE3)
Source text: as §1

BsGpsB1-68Lys32Glu = biological target: T5, BsGpsB1-68Lys32Glu (Bacillus subtilis, UniProt P0CI74, K32E); test: Fluorescence polarisation binding to BsGpsB1-68Lys32Glu; details: FP
T5 construct: His6 (N, cleaved yes); made in house; host or cells: E. coli BL21(DE3)
Source text: as §1

LmGpsB1-73 = biological target: T6, LmGpsB1-73 (Listeria monocytogenes serovar 1/2a, UniProt Q8Y614); test: Fluorescence polarisation binding to LmGpsB1-73; details: FP
T6 construct: made in house; host or cells: E. coli BL21(DE3)
Source text: as §1

full-length BsPBP1 = test: SPR binding to immobilised full-length BsPBP1; parameters: species or system Bacillus subtilis
Source text: (§2) BsPBP1 and BsPBP1_17-914 were immobilised on the surface of a CM5 chip (GE Healthcare). For the BsPBP1/YrrSΔ13-16 titration 800 RUs of BsPBP1 were immobilised on the chip surface; for the BsPBP1/BsGpsB titration 1200 RUs of BsPBP1 were immobilised. YrrSΔ13-16, which lacks residues 13–16 in the cytoplasmic domain, was used in these experiments to minimise non-specific interactions with the chip matrix; binding of YrrSΔ13-16 to the reference surface was negligible and the deletion of residues 13–16 leaves the GpsB-binding motif intact. The YrrSΔ13-16 titration was carried out in single-cycle mode, without regenerating the surface between successive injections of protein, because harsh reagents were necessary for full surface regeneration.

[4] = biological target: T7, full-length BsPBP1 (Bacillus subtilis PBP1) (B. subtilis, UniProt P39793 1-914); test: SPR; BsPBP1 or BsPBP1_(17-914) immobilised on a CM5 chip (1200 RUs of BsPBP1); BsGpsB injected; 10 mM Tris.HCl pH 8.0, 250 mM NaCl, 0.1% reduced Triton X-100; details: both partners purified
T7 construct: also called wild-type BsPBP1; source: E. coli, purified from membrane pellets (His select resin, thrombin, Superdex S200)
T7 sequence (looked up): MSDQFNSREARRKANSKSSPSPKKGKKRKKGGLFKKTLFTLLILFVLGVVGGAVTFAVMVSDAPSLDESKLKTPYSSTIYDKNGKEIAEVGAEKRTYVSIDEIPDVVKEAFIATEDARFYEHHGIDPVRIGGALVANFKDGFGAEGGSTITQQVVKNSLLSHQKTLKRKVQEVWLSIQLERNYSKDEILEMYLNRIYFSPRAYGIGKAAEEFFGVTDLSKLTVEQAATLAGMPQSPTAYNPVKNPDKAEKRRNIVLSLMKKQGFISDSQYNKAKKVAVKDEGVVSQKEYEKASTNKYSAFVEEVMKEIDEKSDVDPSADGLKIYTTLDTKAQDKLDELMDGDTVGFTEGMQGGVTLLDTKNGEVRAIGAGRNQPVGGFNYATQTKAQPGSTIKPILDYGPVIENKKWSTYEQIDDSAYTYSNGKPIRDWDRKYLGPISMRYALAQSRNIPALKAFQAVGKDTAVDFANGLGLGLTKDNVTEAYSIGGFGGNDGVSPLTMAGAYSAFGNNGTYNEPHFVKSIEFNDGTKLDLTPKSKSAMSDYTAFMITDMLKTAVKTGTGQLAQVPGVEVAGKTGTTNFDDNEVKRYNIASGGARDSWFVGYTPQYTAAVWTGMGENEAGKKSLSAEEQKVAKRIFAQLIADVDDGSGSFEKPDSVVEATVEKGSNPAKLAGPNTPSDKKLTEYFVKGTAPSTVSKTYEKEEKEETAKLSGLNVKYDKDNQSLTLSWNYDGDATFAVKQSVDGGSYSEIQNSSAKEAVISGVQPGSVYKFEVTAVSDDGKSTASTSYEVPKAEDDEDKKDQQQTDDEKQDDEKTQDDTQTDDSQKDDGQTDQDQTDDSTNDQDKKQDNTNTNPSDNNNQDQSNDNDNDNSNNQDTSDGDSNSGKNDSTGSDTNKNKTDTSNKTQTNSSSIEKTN

BsPBP1_17-914 = test: SPR binding to immobilised BsPBP1_17-914; parameters: species or system Bacillus subtilis; details: chip coated with BsPBP1_17-914, even when 25 µM BsGpsB injected
Source text: as §2

C[C@@H]1O[C@@H]1P(=O)(O)O [fosfomycin]
fosfomycin sensitivity (L. monocytogenes [1]): Effects on fosfomycin sensitivity were apparent in mutants carrying the pbpA1^Arg8Ala,Arg12Ala and pbpA1^Gln10Pro alleles but only when LmPBPA2, the LmPBPA1 paralogue, was also absent
fosfomycin susceptibility of ΔgpsB mutants (L. monocytogenes [2]): more susceptible

CSCC[C@H](NC(=O)[C@H](CO)NC(=O)CN)C(=O)N[C@@H](C)C(=O)N[C@@H](CC(=O)O)C(=O)N[C@@H](CCC(N)=O)C(=O)N[C@@H](Cc1ccccc1)C(=O)N[C@@H](CC(N)=O)C(=O)N[C@@H](CO)C(=O)N[C@@H](CCCNC(=N)N)C(=O)N[C@@H](CCC(=O)O)C(=O)N[C@@H](C)C(=O)N[C@@H](CCCNC(=N)N)C(=O)N[C@@H](CCCNC(=N)N)C(=O)N[C@@H](CCCCN)C(=O)N[C@@H](C)C(=O)N[C@@H](CC(N)=O)C(=O)N[C@@H](CSC1CC(=O)N(c2ccc(-c3c4ccc(=[N+](C)C)cc-4oc4cc(N(C)C)ccc34)c(C(=O)[O-])c2)C1=O)C(=O)N[C@@H](CCCCN)C(=O)N[C@@H](CO)C(=O)N[C@@H](CO)C(=O)N1CCC[C@H]1C(=O)N[C@@H](CO)C(=O)N1CCC[C@H]1C(=O)N[C@@H](CCCCN)C(=O)N[C@@H](CCCCN)C(=O)NCC(=O)N[C@@H](CCCCN)C(=O)N[C@@H](CCCCN)C(=O)N[C@@H](CCCNC(=N)N)C(=O)N[C@@H](CCCCN)C(=O)N[C@@H](CCCCN)C(=O)NCC(=O)NCC(=O)O (some centres unmarked) [TAMRA-BsPBP11-32] (H-GSMADQFNSREARRKANC(X1)KSSPSPKKGKKRKKGG-OH)
reduction in affinity on GpsB mutation (BsGpsB1-68Tyr25Phe): more than 8 fold
helical residues corresponding to helical content [3]: ~ 5 residues
α-helical content ([3]; average of at least four measurements): 14%
reduction in affinity on GpsB mutation (BsGpsB1-68Asp35Ala): more than 8 fold
reduction in affinity on GpsB mutation (BsGpsB1-68Glu17Ala): more than 8 fold
reduction in affinity on GpsB mutation (BsGpsB1-68Asp31Ala): more than 8 fold

CSCC[C@H](NC(=O)[C@H](CO)NC(=O)CN)C(=O)N[C@@H](C)C(=O)N[C@@H](CC(=O)O)C(=O)N[C@@H](CCCCN)C(=O)N1CCC[C@H]1C(=O)N[C@@H](CCC(N)=O)C(=O)N[C@H](C(=O)N[C@@H](CCCNC(=N)N)C(=O)N[C@@H](CO)C(=O)N[C@@H](CCC(N)=O)C(=O)N[C@@H](Cc1ccc(O)cc1)C(=O)N[C@@H](CCCNC(=N)N)C(=O)N[C@@H](CC(N)=O)C(=O)N[C@@H](CCCCN)C(=O)N[C@@H](CCC(N)=O)C(=O)N[C@@H](CO)C(=O)NCC(=O)NCC(=O)N[C@@H](CSC1CC(=O)N(c2ccc3c(c2)C(=O)OC32c3ccc(O)cc3Oc3cc(O)ccc32)C1=O)C(=O)N[C@@H](CCCCN)C(=O)O)[C@@H](C)O (some centres unmarked) [Fluorescein-LmPBPA11-20] (H-GSMADKPQTRSQYRNKQSGGC(Fluorescein(5-Mal))K-OH; N-terminus and C-terminus assumed)
binding to BsGpsB1-68Lys32Glu (in words) (BsGpsB1-68Lys32Glu): almost identical
binding to LmGpsB1-73 (in words) (LmGpsB1-73): affinity similar to that of BsPBPA1_1-32 for BsGpsB1-68

B1: full-length BsGpsB (Bacillus subtilis GpsB) (natural protein, B. subtilis, UniProt P0CI74 1-98, looked up)
chain: MLADKVKLSAKEILEKEFKTGVRGYKQEDVDKFLDMIIKDYETFHQEIEELQQENLQLKKQLEEASKKQPVQSNTTNFDILKRLSNLEKHVFGSKLYD
notes: GpsB, Bacillus subtilis; purification of the full-length protein is not described here; source: E. coli BL21(DE3) used for recombinant protein production)
Kd (full-length BsPBP1; SPR, PBP1-coated chip, full-length GpsB data fit 1:1 only over limited concentration range (avidity), BsGpsB1-68 supports 1:1, peer review file, read-out: affinity / Kd by SPR): 700 nM
SPR binding (in words) (full-length BsPBP1; chip coated with wild-type BsPBP1 (1200 RU), submicromolar BsGpsB): submicromolar concentrations of BsGpsB bound to chips coated with the wild-type BsPBP1
binding result [4]: binds
SPR binding (in words) (BsPBP1_17-914): does not interact; also recorded: no interaction
